Source: paper PMC12698583, “Efficacy of sulfonamides targeting malic enzyme in an animal model of Chagas disease” (Frontiers in Pharmacology, 2025)

Columns and labels:
[1] = Metabolic stability in human liver microsomes; assay type: in vitro ADME; details: for half-life at 1 μM / microsomal CLint at 1 μM: pooled liver microsomes, pH 7.4, human liver microsomes; for half-life at 1 μM: 0.25 mg/mL, read-out: T1/2 human; for microsomal CLint at 1 μM: read-out: CL int. mic.; for parent compound remaining: human microsomes
Method: The in vitro metabolic stability of the compound was evaluated in pooled human liver microsomes (HLM, 20 mg/mL), Sprague-Dawley rat liver microsomes (RLM, 20 mg/mL), and CD-1 mouse liver microsomes (MLM, 20 mg/mL), all purchased from GIBCO (Thermo Fisher Scientific). NADPH regenerating system (GentestTM) was prepared in potassium phosphate buffer (100 mM, pH 7.4). […] The reaction was stopped by adding acetonitrile, followed by vortex homogenization, sonication for 5 min, and centrifugation at 10,000 g for 5 min at 4 °C. The supernatants were transferred to glass vials for LC-MS/MS analysis. The half-life was estimated based on the area under the curve (AUC) through regression analysis of the concentration decay over time. This calculation was performed using the following formula: t1/2=LN2/Kel
Where LN is the neperian logarithm, and K is the slope of the regression of the LN of AUC as a function of time. Then, the microsomal intrinsic clearance (CLint, mic) was calculated using the following equation: CLint.mic=LN2/t1/2 x VI/PM
Where V is the incubation volume (µL), and PM is the microsomal protein concentration (mg). This intrinsic clearance can be extrapolated to the whole liver (CLint,hep) using the following equation: CLint.hep=CLint.mic x ML x LB
ML is the microsomal yield, and LB is the liver weight (g) per kilogram of body weight.
To ensure the linearity of the elimination phase and to avoid the influence of points outside the log-linear range, the points deviated from the expected first-order kinetic profile were excluded. The supernatants were analyzed by UPLC-Xevo-TQ-XS from Waters. Chromatographic separation was performed on an Acquity UPLC BEH C18 column (2.1 × 100 mm, 1.7 µm particle size), maintained at 40 °C. The mobile phases were (A) water with 0.1% formic acid and (B) acetonitrile with 0.1% formic acid. […] The total run time was 5 min.

[2] = Oral bioavailability (plasma concentration); assay type: in vivo, BALB/c mice; details: mice; for concentration at 1 h: female, BALB/c, mouse, plasma, 50 mg/kg, oral administration, after 1 h; for plasma concentration (in words): single oral dose 50 mg/kg, 5-60 min
Method: For the in vivo assays, female BALB/c mice, aged between 8 and 9 weeks and weighing approximately 25 g, were used. […] After preparation, three animals received a single oral dose of 50 mg/kg for each compound via gavage. The control group received only the vehicle. Blood samples were collected at 5-, 15-, 30-, 45-, and 60-minute post-administration using submandibular vein puncture, retro-orbital collection, and intracardiac (terminal) puncture. The mice were maintained under inhalation anesthesia with 3% isoflurane throughout the sampling period to ensure animal welfare. Blood samples were transferred to heparin-containing tubes and processed by centrifugation (4,000 rpm, 10 min, 4 °C) to separate the plasma. The obtained plasma was transferred to clean vials and stored at -80 °C until analysis. Compound quantification was performed using ultra-performance liquid chromatography coupled with tandem mass spectrometry (UPLC-MS/MS).

half-life at 1 μM [1] [min] | microsomal CLint at 1 μM [1] [µL/min/mg] | concentration at 1 h [2] [nM] | plasma concentration (in words) [2] | parent compound remaining ([1]; 5 min) [%] | parent compound remaining ([1]; 60 min) | SMILES
6 | 97 | ≤ 1000 | between EC50 and EC90 | – | – | CC(C)Oc1ccc(NS(=O)(=O)c2cccc(NC(=O)c3cnccn3)c2)cc1 [AC-M110, N-(3-(N-(4-isopropoxyphenyl)sulfamoyl)phenyl)pyrazine-2-carboxamide]
7 | 78 | ≤ 1000 | between EC50 and EC90 | 47 | about 1% | COc1ccc(NS(=O)(=O)c2cccc(NC(=O)c3cnccn3)c2)cc1 [AC-R008, N-(3-(N-(4-methoxyphenyl)sulfamoyl)phenyl)pyrazine-2-carboxamide]
